Experimental data reported in US8513248B2, “5,6,7,8-tetrahydroimidazo[1,2-A]pyrazine derivatives as P2X7 modulators” (Glaxo Group Limited, priority 2009, dated 2013).
Structures can show the parent of a compound that is named as a salt.

Molecular target: T1, human recombinant P2X7 receptors (Homo sapiens, UniProt Q99572)
T1 construct: expressed in transfected cells
T1 sequence (Q99572 1-595): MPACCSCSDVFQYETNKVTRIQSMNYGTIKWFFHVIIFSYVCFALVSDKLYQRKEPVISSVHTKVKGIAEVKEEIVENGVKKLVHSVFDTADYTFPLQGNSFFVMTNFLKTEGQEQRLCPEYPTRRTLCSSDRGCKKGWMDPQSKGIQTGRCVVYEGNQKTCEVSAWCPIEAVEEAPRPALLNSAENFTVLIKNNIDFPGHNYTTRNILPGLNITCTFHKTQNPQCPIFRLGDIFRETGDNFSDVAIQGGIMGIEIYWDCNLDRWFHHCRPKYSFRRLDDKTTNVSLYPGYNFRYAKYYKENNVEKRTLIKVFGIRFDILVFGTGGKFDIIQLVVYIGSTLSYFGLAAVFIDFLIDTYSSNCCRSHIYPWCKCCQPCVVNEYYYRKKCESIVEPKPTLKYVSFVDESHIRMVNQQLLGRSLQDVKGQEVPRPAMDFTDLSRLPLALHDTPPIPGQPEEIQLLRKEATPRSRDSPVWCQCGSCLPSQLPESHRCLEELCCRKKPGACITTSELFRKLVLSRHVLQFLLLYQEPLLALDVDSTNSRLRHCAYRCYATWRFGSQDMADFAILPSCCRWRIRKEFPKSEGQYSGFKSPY
Test: Ethidium Accumulation Assay 1
Assay type: cell-based
Conditions: HEK293 cells stably expressing human recombinant P2X7; 1 mM ATP; ethidium 100 μM; read-out: Assay 1 (antagonist pIC50 for blocking ATP responses, ethidium accumulation) (converted)
Experimental: Studies were performed using NaCl assay buffer of the following composition: 140 mM NaCl, 10 mM HEPES [4-(2-hydroxyethyl)-1-piperazine-1-ethanesulfonic acid], 5 mM N-methyl-D-glucamine, 5.6 mM KCl, 10 mM D-glucose, 0.5 mM CaCl2 (pH 7.4).
Human Embryonic Kidney (HEK) 293 cells, stably expressing human recombinant P2X7 receptors, were grown in poly-D-lysine pretreated 96 well plates for 18-24 hours. […] The cells were washed twice with 350 μl of the assay buffer, before addition of 50 μl of the assay buffer containing the putative P2X7 receptor antagonist compound. (A small amount of dimethyl sulfoxide, for initially dissolving the compound, is optionally used and present in this […] test compound sample.) The cells were then incubated at room temperature (19-21° C.) for 30 min before addition of ATP and ethidium (100 μM final assay concentration). The ATP concentration was chosen to be close to the EC80 for the receptor type and was 1 mM for studies on the human P2X7 receptor. Incubations were continued for 8 or 16 min and were terminated by addition of 25 μl of 1.3M sucrose containing 4 mM of the P2X7 receptor antagonist Reactive Black 5 (Aldrich). […] Antagonist pIC50 values for blocking ATP responses were determined using iterative curve fitting techniques.

SMILES | IC50
O=C(c1ccc(Cl)cc1Cl)N1CCn2cc(C(F)(F)F)nc2C1 [Example 3, 7-[(2,4-Dichlorophenyl)carbonyl]-2-(trifluoromethyl)-5,6,7,8-tetrahydroimidazo[1,2-a]pyrazine] | < 1000 nM
O=C(c1cccc(C(F)(F)F)c1Cl)N1CCn2c(-c3ccccc3)cnc2C1 [Example 4, 7-{[2-chloro-3-(trifluoromethyl)phenyl]carbonyl}-3-phenyl-5,6,7,8-tetrahydroimidazo[1,2-a]pyrazine hydrochloride] | < 10 nM
O=C(c1ccc(Cl)cc1Cl)N1CCn2c(-c3ccccc3)cnc2C1 [Example 5, 7-[(2,4-dichlorophenyl)carbonyl]-3-phenyl-5,6,7,8-tetrahydroimidazo[1,2-a]pyrazine hydrochloride] | < 100 nM
CCc1cn2c(n1)CN(C(=O)c1cccc(C(F)(F)F)c1Cl)CC2 [Example 6, 7-{[2-chloro-3-(trifluoromethyl)phenyl]carbonyl}-2-ethyl-5,6,7,8-tetrahydroimidazo[1,2-a]pyrazine] | < 100 nM
CCc1cn2c(n1)CN(C(=O)c1ccc(Cl)cc1Cl)CC2 [Example 7, 7-[(2,4-dichlorophenyl)carbonyl]-2-ethyl-5,6,7,8-tetrahydroimidazo[1,2-a]pyrazine] | < 1000 nM
O=C(c1ccccc1Cl)N1CCn2c(-c3ccccc3)cnc2C1 [Example 8, 7-[(2-chlorophenyl)carbonyl]-3-phenyl-5,6,7,8-tetrahydroimidazo[1,2-a]pyrazine hydrochloride] | < 100 nM
O=C(c1cccc(Cl)c1Cl)N1CCn2c(-c3ccccc3)cnc2C1 [Example 9, 7-[(2,3-Dichlorophenyl)carbonyl]-3-phenyl-5,6,7,8-tetrahydroimidazo[1,2-a]pyrazine hydrochloride] | < 10 nM
O=C(c1ccc(F)cc1Cl)N1CCn2c(-c3ccccc3)cnc2C1 [Example 10, 7-[(2-chloro-4-fluorophenyl)carbonyl]-3-phenyl-5,6,7,8-tetrahydroimidazo[1,2-a]pyrazine hydrochloride] | < 100 nM
Cc1cn2c(n1)CN(C(=O)c1cccc(C(F)(F)F)c1Cl)CC2 [Example 11, 7-{[2-chloro-3-(trifluoromethyl)phenyl]carbonyl}-2-methyl-5,6,7,8-tetrahydroimidazo[1,2-a]pyrazine] | < 501 nM
Cc1cn2c(n1)CN(C(=O)c1cccc(Cl)c1Cl)CC2 [Example 12, 7-[(2,3-dichlorophenyl)carbonyl]-2-methyl-5,6,7,8-tetrahydroimidazo[1,2-a]pyrazine] | < 501 nM
CC(C)(C)c1cn2c(n1)CN(C(=O)c1cccc(C(F)(F)F)c1Cl)CC2 [Example 13, 7-{[2-chloro-3-(trifluoromethyl)phenyl]carbonyl}-2-(1,1-dimethylethyl)-5,6,7,8-tetrahydroimidazo[1,2-a]pyrazine hydrochloride] | < 1000 nM
O=C(c1cccc(C(F)(F)F)c1Cl)N1CCn2cc(-c3ccccc3)nc2C1 [Example 14, 7-{[2-chloro-3-(trifluoromethyl)phenyl]carbonyl}-2-phenyl-5,6,7,8-tetrahydroimidazo[1,2-a]pyrazine hydrochloride] | < 501 nM
O=C(c1cccc(Cl)c1Cl)N1CCn2cc(-c3ccccc3)nc2C1 [Example 15, 7-[(2,3-dichlorophenyl)carbonyl]-2-phenyl-5,6,7,8-tetrahydroimidazo[1,2-a]pyrazine hydrochloride] | < 1000 nM
O=C(c1cccc(C(F)(F)F)c1Cl)N1CCn2c(-c3ccccn3)cnc2C1 [Example 16, a hydrochloride (n•HCl) salt of 7-{[2-chloro-3-(trifluoromethyl)phenyl]carbonyl}-3-(2-pyridinyl)-5,6,7,8-tetrahydroimidazo[1,2-a]pyrazine] | < 10 nM
O=C(c1c(Cl)cc(Cl)cc1Cl)N1CCn2c(-c3ccccc3)cnc2C1 [Example 17, 3-Phenyl-7-[(2,4,6-trichlorophenyl)carbonyl]-5,6,7,8-tetrahydroimidazo[1,2-a]pyrazine hydrochloride] | < 100 nM
